The source of these data is patent US20250074902A1, “FUSED BICYCLIC HETEROARYL AMIDE COMPOUND AS PROTEIN AGGREGATION INHIBITOR” (SHANGHAI JINGXIN BIOMEDICAL CO., LTD., priority 2021, published 2025).

Series [1] can be described thus: Determination of brain/plasma ratio. The conditions noted are these: mouse, male C57BL/6 mice, oral 10 mg/kg, ratio of average drug concentration in brain tissue to plasma. The format is in vivo. How it is done: Male C57BL/6 mice were used as research subjects, and brain perfusion technology was used to investigate the pharmacokinetic characteristics of the compound of the present invention transported through the blood-brain barrier, and the drug concentrations in the blood and brain tissue samples of mice after 0.25 h, 1 h, 4 h and 8 h were detected, and the ratio of the average drug concentrations in brain tissue and plasma was calculated.
Oral administration solution (1.000 mg·ml^−1) of the compound of the present invention was prepared:
Weigh 3.116 mg of the compound and place it in an EP tube, then add DMS 0.156 mL, Solutol 0.312 mL and ultrapure water 2.648 mL (the volume ratio of the three is 5:10:85, v:v:v), vortex ultrasound to fully dissolve it, and the final actual concentration is 1.000 mg·mL-1 of the clear administration solution.
C57BL/6 mice (male), purchased from Sibeifu (Beijing) Biotechnology Co., Ltd., experimental animal production license number: SCXK (Beijing) 2019-0010.
Fasting: Overnight fasting, no water withdrawal, feed provided 4 hours after medication.
Select qualified healthy C57BL/6 mice, 3 per group. After oral administration (10 mg/kg), about 150 μL of whole blood was collected from the orbital venous plexus of mice at 0.25 h, 1 h, 4 h and 8 h after medication and placed in a centrifuge tube containing EDTA-K2 anticoagulant. After administration, the mice were anesthetized about 1 minute before the scheduled time point, and brain perfusion was performed at 0.25 h, 1 h, 4 h and 8 h after administration. After perfusion, the mouse brain tissue samples were dissected with ophthalmic scissors and ophthalmic forceps, and the remaining blood on the tissue surface was immediately rinsed with ultrapure water within 5 min, wiped dry, weighed, and 4 times the volume of acetonitrile-water solution (10:90, v:v) was added and homogenized, and then the homogenate was placed in a −20° C. refrigerator for testing. The collected samples were placed in an ice bath during the entire experimental operation.
According to the time points specified in the above experimental protocol, about 150 μL of whole blood was collected from the orbital venous plexus of C57BL/6 mice after administration and placed in a 1.5 mL centrifuge tube containing EDTAN-K2. The collected whole blood was centrifuged at 2000 g, 4° C. for 10 min, and all plasma was divided and placed in another clean centrifuge tube, and then placed in a −20° C. refrigerator for testing.
Adjust the peristaltic pump device to ensure that it works normally, the liquid flows out smoothly and stably, and there is no air in the flow path. Anesthetize the mice after administration with a mixed anesthetic of 70% CO2 and 30% O2, After the animal is fully anesthetized, quickly open the chest cavity with surgical scissors to expose the heart. […] Turn on the peristaltic pump switch and perfuse for 2-5 minutes. The perfusion fluid is 100 U/1000 mL heparin sodium saline. After the perfusion is completed, use ophthalmic scissors and ophthalmic forceps to dissect the mouse brain tissue sample, immediately rinse the remaining blood on the tissue surface with ultrapure water within 5 minutes, wipe dry, weigh, add 4 times the volume of acetonitrile-water solution (10:90, v:v) and homogenize, and then place the homogenate in a −20° C. refrigerator for testing.
Calculate the ratio of the average drug concentration in brain tissue to that in plasma, i.e., the brain/plasma ratio.

A short description of series [2]: Determination of half-life in C57BL/6 mice. The note with it: mouse, 2 mg/kg; male C57BL/6 mice, intravenous, 2 mpk, plasma. The class given is in vivo. As to the method:
C57BL/6 mice (male) were selected, and the compound of the present invention was intravenously administered at a dose of 2 mpk, About 0.03 mL of whole blood was collected from the mouse orbital venous plexus at 0 h before administration, 0.0833, 0.25, 0.5, 1, 2, 4, 6, 8 and 24 h after administration. The blood was placed in a centrifuge tube containing EDTA-K2 anticoagulant, and placed in crushed ice after collection. Centrifuge at 2000 g and 4° C. for 10 min within 0.5 hours, and 10 μL of plasma was quantitatively divided and placed in another clean centrifuge tube, placed in a −20° C. refrigerator, and the blood drug concentration was determined by LC-MS/MS method.

For another series, the target named is T1, α-synuclein (Homo sapiens, UniProt P37840).
T1 construct: purchased Sino Biological
Description: Detection of the ability of compounds to inhibit α-synuclein self-aggregation by HPLC. The class given is biochemical. The conditions noted are these: test compound 200 μg/mL, α-synuclein 250 μg/ml, 37° C., 9 days; HPLC peak area of α-synuclein multimers vs model group; read-out: inhibition rate (%). How it is done:
The test compound (for poorly soluble compounds, dissolve with an appropriate amount of DMSO first) and fresh α-synuclein monomers (purchased from Sino Biological) were added to pure water to a final protein concentration of 250 μg/ml, and the concentration of the test compound was 200 μg/mL, followed by incubation at 37° C. for 9 days. The peak area of α-synuclein multimers after incubation was detected by HPLC and the inhibition rate was calculated. […] Inhibition rate=(peak area of model group−peak area of example group)/peak area of model group×100%.

With `CCCCC(Cc1c[nH]c2ccccc12)NC(=O)c1cnc(N2CCN(C)CC2)s1` (centres unmarked) [Comparative Example 1, reference compound], the Kp at 4 h in series [1] amounted to 0.35. The molecule also showed a half-life in series [2] of 0.39 h.
Consider `CCCC[C@@H](Cc1c[nH]c2ccccc12)NC(=O)c1cc2ccc(N3CCN(C)CC3)cc2s1` [Example 42, (S)—N-(1-(1H-indol-3-yl)hexane-2-yl)-6-(4-methylpiperazin-1-yl) benzo[b]thiophene-2-carboxamide], for which, on α-synuclein, the inhibition at 200 µg/mL amounted to 97.2%. Further, the Kp at 4 h in series [1] was 2.05. The same molecule had a half-life in series [2] of 1.17 h.
Take `CCCCC(Cc1c[nH]c2ccccc12)NC(=O)c1cc2ccc(N3CCN(C)CC3)cc2s1` (racemic) [Example 1, N-(1-(1H-indol-3-yl)hexane-2-yl)-6-(4-methylpiperazin-1-yl)benzo[b]thiophene-2-carboxamide]: the inhibition at 200 µg/mL at α-synuclein is 98.3%. The Kp at 4 h in series [1] was found to be 1.53. Further, the half-life in series [2] was 2.21 h.
Consider `CCCCC(Cc1c[nH]c2ccccc12)NC(=O)c1cc2ccc(N3CCN(C4CC4)CC3)cc2s1` (centres unmarked) [Example 3, N-(1-(1H-indol-3-yl)hexane-2-yl)-6-(4-cyclopropylpiperazin-1-yl) benzo[b]-thiophene-2-carboxamide], for which, on α-synuclein, the inhibition at 200 µg/mL is 95.3%. The Kp at 4 h in series [1] amounted to 0.38. In series [2], the half-life was 1.46 h.
Take `CCCC[C@H](Cc1c[nH]c2ccccc12)NC(=O)c1cc2ccc(N3CCN(C)CC3)cc2s1` [Example 43, (R)—N-(1-(1H-indol-3-yl)hexane-2-yl)-6-(4-methylpiperazin-1-yl) benzo[b]thiophene-2-carboxamide]: the inhibition at 200 µg/mL on α-synuclein is 98.6%. In addition, the Kp at 4 h in series [1] amounted to 1.7. This molecule also gave a half-life in series [2] of 1.32 h.
